In patent US20110104080A1, “Oral Compositions for Treatment of Dry Mouth” (priority 2009, published 2011) one finds Water gain data, which are given here for one molecule.

This series can be described thus: Water gain (moisture uptake) of treated cotton swatches, no rinse / with rinse. Format: physicochemical. The settings on record: dried. The procedure: Table 2: Water gain (mg) for cotton swatches with different treatments. […] No-rinse samples were treated, dried then incubated to monitor moisture uptake. With rinse samples were treated, rinsed with water, dried then incubated to monitor moisture uptake. Control represents swatches treated with water only.
For table 2, the test method is as follows: For “no rinse”: 1×1 cm cotton swatches (triplicates) are placed into a weigh boat where each is labeled according to treatment type and number. Initial weights are recorded for each sample. 500 uL of polymer solution is applied to each cotton swatch sample then reweighed as wet weight. Samples are allowed to dry overnight at room temperature conditions. Sample weights are recorded in the following morning as “no rinse”. Samples are then placed on a tray in the incubator at 37° C., 3.3% CO2, and approximately 90% humidity (the metal tray at the bottom of the incubator has plenty of distilled water in the pan to ensure constant humidity). Opening and closing the incubator door frequently causes parameters to shift so minimizing this will ensure proper control over parameter. Samples are incubated for 8 hours then reweighed. The weights represent the moisture uptake ability for the treated samples. […] Samples are weighed and placed in the incubator the following morning similar to above described procedure and weights are recorded as “with rinse”.

Turning to `OCC(O)CO` [40% glycerin, glycerin], the Water gain by setting is: (No Rinse, incubated 8 hours at 37° C., approximately 90% humidity) 393.3 mg; (With Rinse, rinsed with water, then incubated) 126.9 mg.
